Experiment: recombinant UMI read abundance after kanamycin selection (control-corrected) (log10(CPM+1)); higher = more efficient recombination; extreme values may be limits of the assay; sequences stand for … in AGTGCAGAGAAAATCGGCCAGTTTTCTCTGCCTGCAGTCCGCATGCCGTGGGACCCCTTGGGTTCTAACCTGTTGCCTAGATTTATGCAGCGGACTGCCTTTCTCCCAAAGTGATAAACCGG…AGGTTGGTTTCACT; site = the 11-nt donor
Experimental: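 Pooled E. coli donor-specificity screen for the IS621 bridge recombinase. Each library member carries a reprogrammed 11-nt donor and a full-length LE bridge RNA expressed in cis from the natural promoter, with a paired donor-binding loop (8-nt LDG + 4-nt RDG) and a target-binding loop fixed to T5. It is co-electroporated with a T5 target plasmid; recombinase is induced with 0.07 mM IPTG and recombinants are selected on kanamycin. UMIs are counted as CPM, averaged over two biological replicates and corrected by the unselected control. Molecule = full bridge RNA written as DNA, built from the T5 scaffold: LDG = donor specificity nt 1-8, RDG = reverse complement of nt 8-11.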
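Note: IS621 bridge recombinase in Escherichia coli cells against a fixed T5 target plasmid.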

Row | Sequence | recombinant UMI read abundance (log10)
1 | ACTCGAACATGGACCGGTTTTCCCGGTAATCCGTATTTGTC (site ACACGAACTGA) | 0
2 | ACTCGAACATGGACCGGTTTTCCCGGTAATCCGTATTTGTC (site ACCCGAACTGA) | 1.84
3 | ACTCGAACATGGACCGGTTTTCCCGGTAATCCGTATTTGTC (site ACGCGAACTGA) | 1.26
4 | ACTCGAACATGGACCGGTTTTCCCGGTAATCCGTATTTGTC (site ACTCGAACTGA) | 2
5 | ACTCGCTCATGGACCGGTTTTCCCGGTAATCCGTATTTGGT (site ACTCGCTCTAC) | 2.03
6 | ACTCTACCATGGACCGGTTTTCCCGGTAATCCGTATTTGCT (site ACTCTACCTAG) | 0
7 | ACTGACACATGGACCGGTTTTCCCGGTAATCCGTATTTGAC (site ACTGACACTGT) | 2.83
8 | ACTTATGCATGGACCGGTTTTCCCGGTAATCCGTATTTGCT (site ACTTATGCTAG) | 0.0248
9 | ACTTCGCCATGGACCGGTTTTCCCGGTAATCCGTATTTGCT (site ACTTCGCCTAG) | 0.0122
10 | ACTTGATCATGGACCGGTTTTCCCGGTAATCCGTATTTGGC (site ACTTGATCTGC) | 1.24
11 | ACTTGCCCATGGACCGGTTTTCCCGGTAATCCGTATTTGAT (site ACTTGCCCTAT) | 0.398
12 | ACTTGCCCATGGACCGGTTTTCCCGGTAATCCGTATTTGAT (site CCTTGCCCTAT) | 0.0521
13 | ACTTGCCCATGGACCGGTTTTCCCGGTAATCCGTATTTGAT (site GCTTGCCCTAT) | 0.0168
14 | ACTTGCCCATGGACCGGTTTTCCCGGTAATCCGTATTTGAT (site TCTTGCCCTAT) | 0.0192
15 | ACTTTGGCATGGACCGGTTTTCCCGGTAATCCGTATTTGTA (site ACTTTGGCTTA) | 1.26
16 | AGAAAACCATGGACCGGTTTTCCCGGTAATCCGTATTTGCG (site AGAAAACCTCG) | 0
17 | AGAAACGCATGGACCGGTTTTCCCGGTAATCCGTATTTGCT (site AGAAAAGCTAG) | 1.84
18 | AGAAACGCATGGACCGGTTTTCCCGGTAATCCGTATTTGCT (site AGAAACGCTAG) | 2.81
19 | AGAAACGCATGGACCGGTTTTCCCGGTAATCCGTATTTGCT (site AGAAAGGCTAG) | 0
20 | AGAAACGCATGGACCGGTTTTCCCGGTAATCCGTATTTGCT (site AGAAATGCTAG) | 0
21 | AGAAAGACATGGACCGGTTTTCCCGGTAATCCGTATTTGCG (site AGAAAGACTCG) | 2.63
22 | AGAAAGACATGGACCGGTTTTCCCGGTAATCCGTATTTGCG (site AGGAAGACTTG) | 0
23 | AGAAAGGCATGGACCGGTTTTCCCGGTAATCCGTATTTGCG (site AGAAAGGCTAG) | 1.07
24 | AGAAAGGCATGGACCGGTTTTCCCGGTAATCCGTATTTGCG (site AGAAAGGCTCG) | 1.64

Row | Sequence | recombinant UMI read abundance (log10)
25 | AGAAAGGCATGGACCGGTTTTCCCGGTAATCCGTATTTGCG (site AGAAAGGCTGG) | 0
26 | AGAAAGGCATGGACCGGTTTTCCCGGTAATCCGTATTTGCG (site AGAAAGGCTTG) | 1.15
27 | AGAAAGGCATGGACCGGTTTTCCCGGTAATCCGTATTTGCT (site AAAAAGGCTAG) | 0
28 | AGAAAGGCATGGACCGGTTTTCCCGGTAATCCGTATTTGCT (site ACAAAGGCTAG) | 0.00966
29 | AGAAAGGCATGGACCGGTTTTCCCGGTAATCCGTATTTGCT (site AGAAAAGCTAG) | 0
30 | AGAAAGGCATGGACCGGTTTTCCCGGTAATCCGTATTTGCT (site AGAAACGCTAG) | 0
31 | AGAAAGGCATGGACCGGTTTTCCCGGTAATCCGTATTTGCT (site AGAAAGACTAG) | 0
32 | AGAAAGGCATGGACCGGTTTTCCCGGTAATCCGTATTTGCT (site AGAAAGCCTAG) | 0
33 | AGAAAGGCATGGACCGGTTTTCCCGGTAATCCGTATTTGCT (site AGAAAGGCTAA) | 0.446
34 | AGAAAGGCATGGACCGGTTTTCCCGGTAATCCGTATTTGCT (site AGAAAGGCTAC) | 0.019
35 | AGAAAGGCATGGACCGGTTTTCCCGGTAATCCGTATTTGCT (site AGAAAGGCTAG) | 2.58
36 | AGAAAGGCATGGACCGGTTTTCCCGGTAATCCGTATTTGCT (site AGAAAGGCTAT) | 1.27
37 | AGAAAGGCATGGACCGGTTTTCCCGGTAATCCGTATTTGCT (site AGAAAGGCTCG) | 1.65
38 | AGAAAGGCATGGACCGGTTTTCCCGGTAATCCGTATTTGCT (site AGAAAGGCTGG) | 0.262
39 | AGAAAGGCATGGACCGGTTTTCCCGGTAATCCGTATTTGCT (site AGAAAGGCTTG) | 0
40 | AGAAAGGCATGGACCGGTTTTCCCGGTAATCCGTATTTGCT (site AGAAAGTCTAG) | 0
41 | AGAAAGGCATGGACCGGTTTTCCCGGTAATCCGTATTTGCT (site AGAAATGCTAG) | 0
42 | AGAAAGGCATGGACCGGTTTTCCCGGTAATCCGTATTTGCT (site AGAACGGCTAG) | 0.235
43 | AGAAAGGCATGGACCGGTTTTCCCGGTAATCCGTATTTGCT (site AGAAGGGCTAG) | 0.224
44 | AGAAAGGCATGGACCGGTTTTCCCGGTAATCCGTATTTGCT (site AGAATGGCTAG) | 0
45 | AGAAAGGCATGGACCGGTTTTCCCGGTAATCCGTATTTGCT (site AGACAGGCTAG) | 0
46 | AGAAAGGCATGGACCGGTTTTCCCGGTAATCCGTATTTGCT (site AGAGAGGCTAG) | 0.846
47 | AGAAAGGCATGGACCGGTTTTCCCGGTAATCCGTATTTGCT (site AGATAGGCTAG) | 1.23
48 | AGAAAGGCATGGACCGGTTTTCCCGGTAATCCGTATTTGCT (site AGCAAGGCTAG) | 0

Row | Sequence | recombinant UMI read abundance (log10)
49 | AGAAAGGCATGGACCGGTTTTCCCGGTAATCCGTATTTGCT (site AGGAAGGCTAG) | 1.73
50 | AGAAAGGCATGGACCGGTTTTCCCGGTAATCCGTATTTGCT (site AGTAAGGCTAG) | 1.3
51 | AGAAAGGCATGGACCGGTTTTCCCGGTAATCCGTATTTGCT (site ATAAAGGCTAG) | 0
52 | AGAAAGGCATGGACCGGTTTTCCCGGTAATCCGTATTTGCT (site CGAAAGGCTAG) | 0.48
53 | AGAAAGGCATGGACCGGTTTTCCCGGTAATCCGTATTTGCT (site GGAAAGGCTAG) | 0.0101
54 | AGAAAGGCATGGACCGGTTTTCCCGGTAATCCGTATTTGCT (site TGAAAGGCTAG) | 0.932
55 | AGAAAGTCATGGACCGGTTTTCCCGGTAATCCGTATTTGCT (site AGAAAGACTAG) | 0
56 | AGAAAGTCATGGACCGGTTTTCCCGGTAATCCGTATTTGCT (site AGAAAGCCTAG) | 0
57 | AGAAAGTCATGGACCGGTTTTCCCGGTAATCCGTATTTGCT (site AGAAAGGCTAG) | 0
58 | AGAAAGTCATGGACCGGTTTTCCCGGTAATCCGTATTTGCT (site AGAAAGTCTAG) | 2.63
59 | AGAACAACATGGACCGGTTTTCCCGGTAATCCGTATTTGTG (site AGAACAACTCA) | 1.29
60 | AGAATCACATGGACCGGTTTTCCCGGTAATCCGTATTTGAA (site AGAATCACTTT) | 2.16
61 | AGACGAACATGGACCGGTTTTCCCGGTAATCCGTATTTGGA (site AGACGAACTTC) | 1.82
62 | AGACGCACATGGACCGGTTTTCCCGGTAATCCGTATTTGAA (site AGACGCACTTT) | 1.43
63 | AGACGCGCATGGACCGGTTTTCCCGGTAATCCGTATTTGTA (site AGACGCGCTTA) | 2.72
64 | AGACGGTCATGGACCGGTTTTCCCGGTAATCCGTATTTGGC (site AGACGGTCTGC) | 3.28
65 | AGACTAACATGGACCGGTTTTCCCGGTAATCCGTATTTGCT (site AGACTAACTAG) | 2.61
66 | AGACTAGCATGGACCGGTTTTCCCGGTAATCCGTATTTGTT (site AGACTAGCTAA) | 1.07
67 | AGACTAGCATGGACCGGTTTTCCCGGTAATCCGTATTTGTT (site AGCCTAGCTAA) | 0.00926
68 | AGACTAGCATGGACCGGTTTTCCCGGTAATCCGTATTTGTT (site AGGCTAGCTAA) | 0.0149
69 | AGACTAGCATGGACCGGTTTTCCCGGTAATCCGTATTTGTT (site AGTCTAGCTAA) | 0.0145
70 | AGAGACGCATGGACCGGTTTTCCCGGTAATCCGTATTTGAG (site AGAGACGCTCT) | 2.67
71 | AGAGAGACATGGACCGGTTTTCCCGGTAATCCGTATTTGCA (site AGAGAGACTTG) | 2.98
72 | AGAGAGACATGGACCGGTTTTCCCGGTAATCCGTATTTGCA (site AGGAAGACTTG) | 1.56
